The target in the assay is T1, EGFR (Homo sapiens, UniProt P00533).
T1 construct: endogenous in cells; host or cells: A431 cells (lysate, captured with SUMO1 anti-EGFR antibody)
Kind of assay: Biochemical EGFR Assay. Also noted: concentration or dose not given beside the values. The essentials: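 Readout is ABTS absorbance at 410 nm after anti-phosphotyrosine and HRP-antibody detection of EGFR autophosphorylation. The kinase was immunocaptured from A431 lysate, exposed 30 min to test compound diluted 1:10 in TBS, then phosphorylated for 5 min with ATP/MnCl2 before an EDTA stop.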

T1 sequence (P00533 25-1210): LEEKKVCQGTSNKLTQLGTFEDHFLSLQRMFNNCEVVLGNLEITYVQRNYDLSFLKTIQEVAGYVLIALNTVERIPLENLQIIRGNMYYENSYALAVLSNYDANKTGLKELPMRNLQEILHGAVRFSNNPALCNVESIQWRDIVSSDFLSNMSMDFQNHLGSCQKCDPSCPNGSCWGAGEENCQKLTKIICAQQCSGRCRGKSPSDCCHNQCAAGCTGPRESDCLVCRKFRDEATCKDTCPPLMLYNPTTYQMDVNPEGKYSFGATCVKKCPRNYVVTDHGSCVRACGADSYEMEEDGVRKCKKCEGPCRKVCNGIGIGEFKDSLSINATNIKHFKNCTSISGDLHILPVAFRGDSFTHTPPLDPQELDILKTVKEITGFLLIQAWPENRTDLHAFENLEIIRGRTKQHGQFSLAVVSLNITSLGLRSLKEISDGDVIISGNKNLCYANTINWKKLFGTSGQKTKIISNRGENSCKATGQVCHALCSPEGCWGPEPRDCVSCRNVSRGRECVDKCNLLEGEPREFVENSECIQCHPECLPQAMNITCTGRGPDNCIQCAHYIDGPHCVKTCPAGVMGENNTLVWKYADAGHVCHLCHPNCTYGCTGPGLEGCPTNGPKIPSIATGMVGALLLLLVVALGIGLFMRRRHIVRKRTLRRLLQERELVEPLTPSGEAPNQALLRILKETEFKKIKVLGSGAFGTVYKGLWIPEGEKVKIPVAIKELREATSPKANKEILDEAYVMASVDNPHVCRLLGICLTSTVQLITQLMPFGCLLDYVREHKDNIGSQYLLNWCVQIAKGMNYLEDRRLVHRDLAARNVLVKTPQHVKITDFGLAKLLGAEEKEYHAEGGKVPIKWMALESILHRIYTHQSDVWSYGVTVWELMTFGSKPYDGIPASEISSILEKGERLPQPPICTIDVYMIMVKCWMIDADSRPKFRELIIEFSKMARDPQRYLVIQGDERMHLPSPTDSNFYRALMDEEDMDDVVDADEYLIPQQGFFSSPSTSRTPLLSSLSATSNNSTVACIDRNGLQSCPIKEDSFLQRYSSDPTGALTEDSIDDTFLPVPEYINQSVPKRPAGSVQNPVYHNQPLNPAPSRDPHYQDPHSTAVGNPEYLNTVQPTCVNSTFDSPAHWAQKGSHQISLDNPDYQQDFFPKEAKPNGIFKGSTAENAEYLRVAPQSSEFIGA

With `O=C1Nc2ccc(S(=O)(=O)N3CCOCC3)cc2C1=Cc1ccccc1C(F)(F)F` [10736/F03], the “Biochem EGFR % Inhibition (P.167)” value stood at 94.0%.
With `Cc1cccc(C=C2C(=O)Nc3ccc(S(=O)(=O)N4CCOCC4)cc32)c1` [10736/F04], the “Biochem EGFR % Inhibition (P.167)” value is given as −21.7%.
For the compound `Cc1ccc(C=C2C(=O)Nc3ccc(S(=O)(=O)N4CCOCC4)cc32)cc1` [10736/F05], the “Biochem EGFR % Inhibition (P.167)” value is listed as −6.0%.
For `O=C1Nc2ccc(S(=O)(=O)N3CCOCC3)cc2C1=Cc1cccc(Cl)c1` [10736/F06], the “Biochem EGFR % Inhibition (P.167)” value is given as 25.1%.
For `O=C1Nc2ccc(S(=O)(=O)N3CCOCC3)cc2C1=Cc1cccc(F)c1` [10736/F07] the value was −12.1%.
Take `O=C1Nc2ccc(S(=O)(=O)N3CCOCC3)cc2C1=Cc1ccccc1F` [10736/F08]: the “Biochem EGFR % Inhibition (P.167)” value is reported as −2.8%.
As to `CCc1ccc(C=C2C(=O)Nc3ccc(S(=O)(=O)N4CCOCC4)cc32)cc1` [10736/F09], the “Biochem EGFR % Inhibition (P.167)” value came out at 6.3%.

The values above are taken from patent US20020026053A1, “Novel 3-(substituted) -2- indolinones compounds and use thereof as inhibitors of protein kinase activity” (priority 1997, published 2002).
